From patent US20120225909A1, “INDAZOLE ANALOG” (priority 2009, published 2012)

Key:
[1] = molecular target: T1, human β2-adrenergic receptor (Homo sapiens, UniProt P07550); experiment: Test Case 3-B: human β2-adrenergic receptor agonist activity; assay type: cell-based; details: for β2 receptor I.A.: Test Case 3-B, maximum response of isoproterenol = 100%; for Emax: read-out: β2 receptor I.A.
T1 construct: expressed in transfected cells; host or cells: CHO (Chinese hamster ovary) cells, pcDNA3
Experimental: Measurement of Human β2-Adrenergic Receptor Agonist Activity
The human β2-adrenergic receptor agonist activity is measured by the same method as in Test Case 1-B using CHO (Chinese hamster ovary) cells transfected by a human β2 gene inserted in pcDNA3 (Invitrogen).

[2] = system: pentobarbital-anesthetized rats; experiment: Test Case 9: effects on the blood pressure and heart rate in pentobarbital-anesthetized rats; assay type: in vivo, rat
Experimental: Effects on the blood pressure and heart rate in pentobarbital-anesthetized rats
The blood pressure and heart rate of rats under pentobarbital anesthesia are measured, and the effects of rapid intravenous administration of the test compound on the blood pressure and heart rate can be studied. After anesthetizing male SD rats (Japan SLC) by intraperitoneal administration of 50 mg/kg of pentobarbital sodium (Tokyo Chemical Industry Co., Ltd.), 25 mg/kg of pentobarbital sodium is administered subcutaneously as maintenance anesthesia. The left femoral vein is exposed and stripped, and a SP10 polyethylene tube filled with saline (connected to a three-way stopcock via a ¼ venous needle) is inserted and left in place in the vein.
The inside of the left thigh is cut, and the femoral artery is exposed and stripped. A polyethylene tube filled with heparinized physiological saline solution (SP31, connected to a three-way stopcock via a Terumo injection needle 22G) is inserted and connected to a pressure transducer. The blood pressure is measured from the pressure transducer via a strain pressure amplifier (AP-641G, Nihon Kohden). The heart rate is measured with the pulse wave of the blood pressure as a trigger via a heart rate counter (AT-601G, Nihon Kohden). The blood pressure, mean blood pressure, and heart rate are output to a recorder and recorded. Furthermore, the mean blood pressure is recorded via the strain pressure amplifier (AP-641G) using the formula {[…]}.
Specifically, 3 mg/mL of test compound is administered rapidly at a volume of 1 mL/kg. The relative value (%) of the values at each point in time versus the mean blood pressure and heart rate before beginning administration are determined for each individual, and the mean±standard deviation of the relative value (%) at the time of the maximum change in each parameter is determined.

[3] = molecular target: T2, human α1A-adrenergic receptor (Homo sapiens, UniProt P35348); experiment: Test Case 4-A: human α1A-adrenergic receptor agonist activity (HEK293, Ca flux, Fura-2); assay type: cell-based; set-up: expressed in transfected cells; host or cells: HEK293 cells, pcDNA3.1; details: for α1A receptor I.A.: Test Case 4-A, maximum response of norepinephrine = 100%, Table 4; for Emax: HEK293, read-out: α1A receptor I.A.
T2 sequence (P35348 1-466): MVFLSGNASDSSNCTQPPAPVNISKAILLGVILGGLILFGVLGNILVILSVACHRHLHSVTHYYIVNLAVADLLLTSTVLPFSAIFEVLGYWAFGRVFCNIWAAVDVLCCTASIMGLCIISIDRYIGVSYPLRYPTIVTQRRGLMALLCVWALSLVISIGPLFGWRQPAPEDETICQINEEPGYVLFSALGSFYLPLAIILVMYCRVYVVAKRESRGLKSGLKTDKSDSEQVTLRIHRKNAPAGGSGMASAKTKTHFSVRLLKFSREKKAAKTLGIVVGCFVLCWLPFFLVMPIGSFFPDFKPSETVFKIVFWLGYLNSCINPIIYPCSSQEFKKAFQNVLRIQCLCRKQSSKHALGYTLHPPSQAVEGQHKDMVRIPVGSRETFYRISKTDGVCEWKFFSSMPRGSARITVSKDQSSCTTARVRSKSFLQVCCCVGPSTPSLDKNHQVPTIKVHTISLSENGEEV
Outline: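 Fura-2AM-loaded HEK293 cells transfected with human α1A were preincubated for 180 s. Compound (sample plate 10^−5 to 10^−12 M) was added after ~30 s of 340/380 nm excitation ratio reading (500 nm emission, 2-s intervals), followed by 270 s more reading. Ca flux is the peak height: maximum ratio after addition minus the pre-addition ratio.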

[4] = molecular target: T3, human β3-adrenergic receptor (Homo sapiens, UniProt P13945); experiment: Test Case 1-B: human β3-adrenergic receptor agonist activity (cAMP-Screen, 96-well); assay type: cell-based; details: for EC50 / β3 receptor I.A.: Test Case 1-B; for EC50: CHO cells, cAMP; for β3 receptor I.A.: maximum response of isoproterenol = 100%; for Emax: 0.5 h, read-out: β3 receptor I.A.
T3 construct: A full-length human β3 gene is obtained from a human genomic library (made by Clontech) using this as the probe; expressed in transfected cells; host or cells: CHO (Chinese hamster ovary) cells, pcDNA3
Outline: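 CHO cells stably transfected with full-length human β3 gene, serum-starved 15 min, then exposed to serially diluted compound in Ham's F-12 with 100 mmol/L HEPES and 1 mmol/L IBMX (diluent concentrations) for 30 min. Cells lysed 30 min at 37 °C; cAMP quantified by cAMP-Screen immunoassay.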

[5] = molecular target: T4, human β1-adrenergic receptor (Homo sapiens, UniProt P08588); experiment: Test Case 2-B: human β1-adrenergic receptor agonist activity; assay type: cell-based; details: for β1 receptor I.A.: Test Case 2-B, maximum response of isoproterenol = 100%; for Emax: read-out: β1 receptor I.A.
T4 construct: expressed in transfected cells; host or cells: CHO (Chinese hamster ovary) cells, pcDNA3
Experimental: Measurement of Human β1-Adrenergic Receptor Agonist Activity
The human β1-adrenergic receptor agonist activity is measured by the same method as in Test Case 1-B using CHO (Chinese hamster ovary) cells transfected by a human β1 gene inserted in pcDNA3 (Invitrogen).

[6] = system: Male C57BL/6 Cr mice; experiment: Test Case 10: mouse piloerection test; assay type: in vivo
Experimental: Male C57BL/6 Cr mice (Japan SLC) are used. The dissolved compound is administered rapidly via a caudal vein. The animal is placed on the observation stand 5, 15, 30, and 60 minutes after administration, and the state of piloerection is observed. The state of piloerection is evaluated by the following 7-level scoring system according to the examples by the method of Irwin (Psychopharmacologia 1968, 13; 222-257).
Scoring system: “Score 0”: No piloerection at all; “Score 1”: Slight piloerection (piloerection on part of the body such as the back or neck); “Score 2”: Moderate piloerection (piloerection over the entire body); “Score 3”: Marked piloerection (piloerection over the entire body, conspicuous to the extent that the skin can be seen).
“Score 0.5” is between “Score 0” and “Score 1” “Score 1.5” is between […]. “Score 2.5” is between “Score 2” and “Score 3.”

[7] = anesthetized male SD rats, 3 mg/kg intravenous over 30 seconds, maximum change, mean±standard deviation
[8] = 10 mg/kg i.v., n=4, observation time 5 min, Score 0
[9] = 10 mg/kg i.v., n=4, observation time 5 min
[10] = 10 mg/kg i.v., n=4, observation time 15 min, Score 0
[11] = 10 mg/kg i.v., n=4, observation time 15 min
[12] = 10 mg/kg i.v., n=4, observation time 30 min, Score 0
[13] = 10 mg/kg i.v., n=4, observation time 30 min
[14] = 10 mg/kg i.v., n=4, observation time 60 min, Score 0
[15] = anesthetized male SD rats, 3 mg/kg intravenous over 30 seconds, maximum change, mean±standard deviation, 3 mg/kg

T3 sequence (P13945 whole entry): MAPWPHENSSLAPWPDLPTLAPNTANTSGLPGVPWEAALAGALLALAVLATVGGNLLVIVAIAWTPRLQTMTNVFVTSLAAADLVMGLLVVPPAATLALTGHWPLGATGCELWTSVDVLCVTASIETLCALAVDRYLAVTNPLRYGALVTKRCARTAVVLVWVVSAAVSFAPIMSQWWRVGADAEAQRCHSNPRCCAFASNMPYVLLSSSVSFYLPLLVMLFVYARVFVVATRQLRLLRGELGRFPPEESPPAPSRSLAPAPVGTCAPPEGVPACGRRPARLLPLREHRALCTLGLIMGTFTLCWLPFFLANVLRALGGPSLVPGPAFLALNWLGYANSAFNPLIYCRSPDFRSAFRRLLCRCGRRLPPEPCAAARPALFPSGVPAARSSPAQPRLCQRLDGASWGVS
T1 sequence (P07550 whole entry): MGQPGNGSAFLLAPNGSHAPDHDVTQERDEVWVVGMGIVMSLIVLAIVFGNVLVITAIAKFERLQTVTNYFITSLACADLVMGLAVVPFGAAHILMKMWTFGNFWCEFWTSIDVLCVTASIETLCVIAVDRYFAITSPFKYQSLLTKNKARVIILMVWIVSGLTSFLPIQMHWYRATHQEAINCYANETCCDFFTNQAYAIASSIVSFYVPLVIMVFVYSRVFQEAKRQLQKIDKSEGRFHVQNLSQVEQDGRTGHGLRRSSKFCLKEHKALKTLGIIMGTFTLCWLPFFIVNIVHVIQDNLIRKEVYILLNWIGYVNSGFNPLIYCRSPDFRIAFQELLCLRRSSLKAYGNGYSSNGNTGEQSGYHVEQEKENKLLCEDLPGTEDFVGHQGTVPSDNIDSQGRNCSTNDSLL
T4 sequence (P08588 whole entry): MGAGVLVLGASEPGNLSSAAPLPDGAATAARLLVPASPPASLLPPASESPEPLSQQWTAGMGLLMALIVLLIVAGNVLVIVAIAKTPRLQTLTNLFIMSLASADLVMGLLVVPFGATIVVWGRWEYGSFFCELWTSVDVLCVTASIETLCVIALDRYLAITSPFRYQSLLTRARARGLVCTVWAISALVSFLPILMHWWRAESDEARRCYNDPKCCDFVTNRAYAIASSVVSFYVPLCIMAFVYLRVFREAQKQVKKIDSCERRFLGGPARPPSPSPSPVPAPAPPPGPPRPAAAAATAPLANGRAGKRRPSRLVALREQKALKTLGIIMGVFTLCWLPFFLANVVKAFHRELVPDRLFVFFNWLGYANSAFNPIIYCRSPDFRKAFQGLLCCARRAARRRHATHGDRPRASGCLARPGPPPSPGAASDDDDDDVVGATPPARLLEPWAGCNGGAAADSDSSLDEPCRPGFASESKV

COc1n[nH]c2cc(OCCNC[C@H](O)c3cccc(NS(=O)(=O)c4ccsc4)c3)ccc12 [ex46, (R)-N-(3-(1-hydroxy-2-(2-(3-methoxyindazol-6-yloxy)-ethylamino)ethyl)phenyl)thio-phene-3-sulfonamide]
β2 receptor I.A. [1]: −2%
increase in MBP (%) ([2]; rat, in vivo, iv, 3 mg/kg): 5.6 ± 1.1%
α1A receptor I.A. [3]: 0%
EC50 [4]: 2.4 nM
β3 receptor I.A. [4]: 78%
β1 receptor I.A. [5]: 5%
number of experimental animals matching Score 0 (no piloerection) ([6]; in vivo, iv, 10 mg/kg): 4

COc1n[nH]c2cc(OCCNC[C@H](O)c3cccc(NS(=O)(=O)c4cccs4)c3)ccc12 [ex45, (R)-N-(3-(1-hydroxy-2-(2-(3-methoxyindazol-6-yloxy)-ethylamino)ethyl)phenyl)thio-phene-2-sulfonamide]
β2 receptor I.A. [1]: 2%
increase in MBP (%) ([2]; rat, in vivo, iv, 3 mg/kg): 3.9 ± 2.1%
α1A receptor I.A. [3]: 0%
EC50 [4]: 2.4 nM
β3 receptor I.A. [4]: 80%
β1 receptor I.A. [5]: 9%
number of experimental animals matching Score 0 (no piloerection) ([6]; in vivo, iv, 10 mg/kg): 1

COc1n[nH]c2cc(OCCNC[C@H](O)c3cccc(NS(=O)(=O)c4cccc(N)c4)c3)ccc12 [ex41, (R)-3-amino-N-(3-(1-hydroxy-2-(2-(3-methoxyindazol-6-yloxy)ethylamino)ethyl)phenyl) benzenesulfonamide]
β2 receptor I.A. [1]: 5%
increase in MBP (%) [2, 7]: 5.7 ± 0.8%
α1A receptor I.A. [3]: 0%
EC50 [4]: 0.21 nM
β3 receptor I.A. [4]: 76%
β1 receptor I.A. [5]: 12%

COc1n[nH]c2cc(OCCNC[C@H](O)c3cccc(NS(=O)(=O)c4ccccc4F)c3)ccc12 [ex5, (R)-2-fluoro-N-(3-(1-hydroxy-2-(2-(3-methoxyindazol-6-yloxy)ethylamino)ethyl)phenyl)benzenesulfonamide]
Emax [1]: 0%
increase in MBP (%) [2, 7]: 5.1 ± 2.4%
Emax [3]: 0%
Emax [4]: 90%
EC50 [4]: 90 nM
Emax [5]: 5%
number of experimental animals matching Score 0 (no piloerection) [6, 8]: 2
number of experimental animals matching Score 0.5 [6, 9]: 2
number of experimental animals matching Score 0 (no piloerection) [6, 10]: 2
number of experimental animals matching Score 0.5 [6, 11]: 2
number of experimental animals matching Score 0 (no piloerection) [6, 12]: 2
number of experimental animals matching Score 0.5 [6, 13]: 2
number of experimental animals matching Score 0 (no piloerection) [6, 14]: 2
number of experimental animals matching Score 0.5 ([6]; 10 mg/kg i.v., n=4, observation time 60 min): 2

Cc1n[nH]c2cc(OCCNC[C@H](O)c3cccc(NS(=O)(=O)c4cc(N)ccc4F)c3)ccc12 [ex61]
Emax [1]: -3%
increase in MBP (%) [2, 7]: 4.7 ± 1.2%
Emax [3]: 0%
Emax [4]: 64%
EC50 [4]: 0.2 nM
Emax [5]: 17%
number of experimental animals matching Score 0 (no piloerection) [6, 8]: 4
number of experimental animals matching Score 0 (no piloerection) [6, 10]: 4
number of experimental animals matching Score 0 (no piloerection) [6, 12]: 4
number of experimental animals matching Score 0 (no piloerection) [6, 14]: 4

Cc1n[nH]c2cc(OCCNC[C@H](O)c3cccc(NS(=O)(=O)c4cn[nH]c4)c3)ccc12 [ex82, (R)-N-(3-(1-hydroxy-2-(2-(3-methylindazol-6-yloxy)ethylamino)ethyl)phenyl)py-razole-4-sulfonamide]
Emax [1]: 2%
increase in MBP (%) [2, 7]: 5.7 ± 0.8%
Emax [3]: 13%
Emax [4]: 71%
EC50 [4]: 16 nM
Emax [5]: 7%

COc1n[nH]c2cc(OCCNC[C@H](O)c3cccc(NS(=O)(=O)c4cccs4)c3)ccc12 [ex2, (R)—N-(3-(1-hydroxy-2-(2-(3-methoxyindazol-6-yloxy)ethylamino)ethyl)phenyl)thiophene-2-sulfonamide]
Emax [1]: 3%
increase in MBP (%) [2, 15]: 4.9 ± 0.9%
Emax [3]: 0%
Emax [4]: 109%
EC50 [4]: 3.5 nM
Emax [5]: 6%

Cc1n[nH]c2cc(OCCNC[C@H](O)c3cccc(NS(=O)(=O)c4cnn(C)c4)c3)ccc12 [ex79, (R)-N-(3-(1-hydroxy-2-(2-(3-methylindazol-6-yloxy)ethylamino)ethyl)phenyl)-1-methyl-pyrazole-4-sulfonamide]
Emax [1]: 7%
increase in MBP (%) [2, 7]: 4.2 ± 1.8%
Emax [3]: 0%
Emax [4]: 84%
EC50 [4]: 54 nM
Emax [5]: 7%
number of experimental animals matching Score 0 (no piloerection) [6, 8]: 3
number of experimental animals matching Score 0.5 [6, 9]: 1
number of experimental animals matching Score 0 (no piloerection) [6, 10]: 3
number of experimental animals matching Score 0.5 [6, 11]: 1
number of experimental animals matching Score 0 (no piloerection) [6, 12]: 3
number of experimental animals matching Score 0.5 [6, 13]: 1
number of experimental animals matching Score 0 (no piloerection) [6, 14]: 4

COc1n[nH]c2cc(OCCNC[C@H](O)c3cccc(NS(=O)(=O)c4cccnc4)c3)ccc12 [ex44, (R)-N-(3-(1-hydroxy-2-(2-(3-methoxyindazol-6-yloxy)-ethylamino)ethyl)phenyl)py-ridine-3-sulfonamide]
β2 receptor I.A. [1]: 5%
increase in MBP (%) ([2]; rat, in vivo, iv, 3 mg/kg): 5.7 ± 3.0%
α1A receptor I.A. [3]: 0%
EC50 [4]: 13 nM
β3 receptor I.A. [4]: 58%
β1 receptor I.A. [5]: 9%
number of experimental animals matching Score 0 (no piloerection) ([6]; in vivo, iv, 10 mg/kg): 4

COc1n[nH]c2cc(OCCNC[C@H](O)c3cccc(NS(=O)(=O)c4ccsc4)c3)ccc12 [ex11, (R)-N-(3-(1-hydroxy-2-(2-(3-methoxyindazol-6-yloxy)ethylamino)ethyl)phenyl) thiophene-3-sulfonamide]
Emax [1]: 3%
increase in MBP (%) [2, 15]: 6.1 ± 3.7%
Emax [3]: 0%
Emax [4]: 115%
EC50 [4]: 3.2 nM
Emax [5]: 3%
